Read-outs that look alike come from different tables or passages of the source. Bounds are passed on as bounds.

Assay [1] has as its system Human whole blood, IL-1β production. The assay can be described thus: Whole blood assay for IL-1β production. Format: cell-based. Particulars: LPS-stimulated whole blood, IL-1β by ELISA. The protocol:
The whole blood assay is a simple method for measuring the production of IL-1β (or other cytokines) and the activity of potential inhibitors. The complexity of this assay system, with its full complement of lymphoid and inflammatory cell types, spectrum of plasma proteins and red blood cells is an ideal in vitro representation of human in vivo physiologic conditions.
Set incubator or water bath at 30° C. Aliquot 0.25 ml of blood into 1.5 ml eppendorf tubes. Note: be sure to invert the whole blood sample tubes after every two aliquots. Differences in replicates may result if the cells sediment and are not uniformly suspended. Use of a positive displacement pipette will also minimize differences between replicate aliquots.
Prepare drug dilutions in sterile pyrogen-free saline by serial dilution. A dilution series which brackets the apparent Ki for a test compound determined in an ICE inhibition assay is generally used for the primary compound screen. For extremely hydrophobic compounds, prepare compound dilutions in fresh plasma obtained from the same blood donor or in PBS-containing 5% DMSO to enhance solubility.
Add 25 μl test compound dilution or vehicle control and gently mix the sample. Then add 5.0 μl LPS solution (250 ng/ml stocked prepared fresh: 5.0 ng/ml final concentration LPS), and mix again. Incubate the tubes at […] in a water bath for 16-18 hr with occasional mixing. Alternatively, the tubes can be placed in a rotator set at 4 rpm for the same incubation period. This assay should be set up in duplicate or triplicate with the following controls: negative control—no LPS; positive control—no test inhibitor; vehicle control—the highest concentration of DMSO or compound solvent used in the experiment. Additional saline is added to all control tubes to normalize volumes for both control and experimental whole blood test samples.
After the incubation period, whole blood samples are centrifuged for 10 minutes at ^˜2000 rpm in the microfuge, plasma is transferred to a fresh microfuge tube and centrifuged at 1000×g to pellet residual platelets if necessary. Plasma samples may be stored frozen at −70° C. prior to assay for cytokine levels by ELISA.
R & D Systems (614 McKinley Place N.E. Minneapolis, Minn. 55413) Quantikine kits may be used for measurement of IL-1β and TNF-α. The assays are performed according to the manufacture's directions. IL-1β levels of ^˜1-5 ng/ml in positive controls among a range of individuals may be observed. A 1:200 dilution of plasma for all samples is usually sufficient for experiments for ELISA results to fall on the linear range of the ELISA standard curves. It may be necessary to optimize standard dilutions if you observe differences in the whole blood assay. Nerad, J. L. et al., J. Leukocyte Biol., 52, pp. 687-692 (1992).
Background: An ELISA detects its analyte on a solid surface through an enzyme-linked reagent.

Assay [2] deals with T1, Caspase-1 (Homo sapiens, UniProt P29466).
T1 sequence (P29466 120-297 limits assumed): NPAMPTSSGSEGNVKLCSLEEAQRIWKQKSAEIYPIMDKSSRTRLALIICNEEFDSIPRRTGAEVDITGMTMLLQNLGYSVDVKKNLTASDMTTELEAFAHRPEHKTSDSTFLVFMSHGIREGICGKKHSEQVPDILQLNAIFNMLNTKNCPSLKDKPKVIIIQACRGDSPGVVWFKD
T1 sequence (P29466 317-404 limits assumed): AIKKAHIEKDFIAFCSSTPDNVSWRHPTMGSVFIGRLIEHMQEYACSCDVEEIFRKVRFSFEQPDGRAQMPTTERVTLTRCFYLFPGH
Nature of the assay: Caspase-1 enzyme inhibition (Ki). It is filed as biochemical. In a few lines: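 Ki obtained by fitting rate versus inhibitor concentration to the Morrison tight-binding equation for competitive inhibitors, with pNA release read at 405 nm at 37 °C. Substrate Suc-YVAD-pNA (80 μM final) added after 15 min enzyme–inhibitor preincubation in Tris pH 7.5 buffer with DTT and CHAPS.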

The subject of assay [3] is Human Peripheral Blood Mononuclear Cells (PBMC), mature IL-1β. Nature of the assay: PBMC cell assay: IL-1β assay with human peripheral blood mononuclear cells. Particulars: LPS-stimulated human PBMC, mature IL-1β in supernatant by ELISA. Format: cell-based. From the text: IL-1β Assay with a Mixed Population of Human Peripheral Blood Mononuclear Cells (PBMC) or Enriched Adherent Mononuclear Cells
Processing of pre-IL-1β by ICE can be measured in cell culture using a variety of cell sources. Human PBMC obtained from healthy donors provides a mixed population of lymphocyte subtypes and mononuclear cells that produce a spectrum of interleukins and cytokines in response to many classes of physiological stimulators. Adherent mononuclear cells from PBMC provides an enriched source of normal monocytes for selective studies of cytokine production by activated cells.
An initial dilution series of test compound in DMSO or ethanol is prepared, with a subsequent dilution into RPMI-10% FBS media (containing 2 mM L-glutamine, 10 mM HEPES, 50 U and 50 ug/ml pen/strep) respectively to yield drugs at 4× the final test concentration containing 0.4% DMSO or 0.4% ethanol. The final concentration of DMSO is 0.1% for all drug dilutions. A concentration titration which brackets the apparent Ki for a test compound determined in an ICE inhibition assay is generally used for the primary compound screen.
Generally 5-6 compound dilutions are tested and the cellular component of the assay is performed in duplicate, with duplicate ELISA determinations on each cell culture supernatant.
Buffy coat cells isolated from one pint human blood (yielding 40-45 ml final volume plasma plus cells) are diluted with media to 80 ml and LeukoPREP separation tubes (Becton Dickinson) are each overlaid with 10 ml of cell suspension. After 15 min centrifugation at 1500-1800×g, the plasma/media layer is aspirated and then the mononuclear cell layer is collected with a Pasteur pipette and transferred to a 15 ml conical centrifuge tube (Corning). Media is added to bring the volume to 15 ml, gently mix the cells by inversion and centrifuge at 300×g for 15 min. The PBMC pellet is resuspended in a small volume of media, the cells are counted and adjusted to 6×10^6 cells/ml.
For the cellular assay, 1.0 ml of the cell suspension is added to each well of a 24-well flat bottom tissue culture plate (Corning), 0.5 ml test compound dilution and 0.5 ml LPS solution (Sigma #L-3012; 20 ng/ml solution prepared in complete RPMI media; final LPS concentration 5 ng/ml). The 0.5 ml additions of test compound and LPS are usually sufficient to mix the contents of the wells. Three control mixtures are run per experiment, with either LPS alone, solvent vehicle control, and/or additional media to adjust the final culture volume to 2.0 ml. The cell cultures are incubated for 16-18 hr at 37° C. in the presence of 5% CO2.
At the end of the incubation period, cells are harvested and transferred to 15 ml conical centrifuge tubes. After centrifugation for 10 min at 200×g, supernatants are harvested and transferred to 1.5 ml Eppendorf tubes. It may be noted that the cell pellet may be utilized for a biochemical evaluation of pre-IL-1β and/or mature IL-1β content in cytosol extracts by Western blotting or ELISA with pre-IL-1β specific antisera.
PBMC are isolated and prepared as described above. Media (1.0 ml) is first added to wells followed by 0.5 ml of the PBMC suspension. After a one hour incubation, plates are gently shaken and nonadherent cells aspirated from each well. Wells are then gently washed three times with 1.0 ml of media and final resuspended in 1.0 ml media. The enrichment for adherent cells generally yields 2.5-3.0×10^5 cells per well. The addition of test compounds, LPS, cell incubation conditions and processing of supernatants proceeds as described above.
Quantikine kits (R&D Systems) may be used for the measurement of mature IL-1β. Assays are performed according to the manufacturer's directions. Mature IL-1β levels of about 1-3 ng/ml in both PBMC and adherent mononuclear cell positive controls are observed. […]

Where [4] appears, read: substrate Suc-YVAD-pNA 80 μM, 37° C., pH 7.5.

For `CC(C)[C@H](NC(=O)c1nccc2ccccc12)C(=O)N1C[C@H](c2ccccc2)C[C@H]1C(=O)N[C@H](C=O)CC(=O)O` [Example 26h], the IC50 (as a rule, the concentration at which inhibition is half-maximal) was below 2500 nM in assay [1] and below 500 nM in assay [3]. For the same compound, the inhibition constant (Ki) (commonly a measure of affinity in units of concentration, obtained from inhibition or displacement) in assay [2] (setting [4]) is below 10 nM.
As for `CS(=O)(=O)C[C@H](NC(=O)c1ccc(N)c(Cl)c1)C(=O)N1CCC[C@H]1C(=O)N[C@H](C=O)CC(=O)O` [Example 20t], the IC50 was below 2500 nM in assay [1] and 500 to 1000 nM in assay [3]. In assay [2] (setting [4]), this compound displayed a Ki of 10 to 1000 nM.
Consider `CCC(C)[C@H](NC(=O)c1ccc(N)c(Cl)c1)C(=O)N1CCC[C@H]1C(=O)N[C@H](C=O)CC(=O)O` (stereo partly drawn) [Example 20q], for which the IC50 in assay [1] was above 7500 nM; in assay [3] it was 500 to 1000 nM. The compound also came in with a Ki in assay [2] (setting [4]) of 10 to 1000 nM.
Consider `CC(C)[C@H](NC(=O)c1ccc2c(c1)S(=O)(=O)c1ccccc1C2=O)C(=O)N1CCC[C@H]1C(=O)N[C@H](C=O)CC(=O)O` [Example 5ai], for which the IC50 in assay [1] is above 7500 nM; in assay [3], below 500 nM. The Ki in assay [2] and in assay [2] (setting [4]) was below 10 nM throughout.
Take `C[C@H](NC(=O)c1cc(Cl)c(N)c(Cl)c1)C(=O)N1CCC[C@H]1C(=O)N[C@H](C=O)CC(=O)O` [Example 122g, 3-({1-[2-(4-Amino-3,5-dichloro-benzoylamino)-propionyl]-pyrrolidine-2-carbonyl}-amino)-4-oxo-butyric acid]: the values for the IC50 in assay [1] and in assay [3] were below 2500 nM and 500 to 1000 nM, respectively. This compound also yielded a Ki in assay [2] (setting [4]) below 10 nM.
For `CC(C)C(NC(=O)c1ccc(N)c(Cl)c1)C(=O)N1CCCC1C(=O)NC(C=O)CC(=O)O` (stereo not drawn) [Example 61, 3-((1-[2-(4-Amino-3-chloro-benzoylamino)-3-methyl-butyryl]-pyrrolidine-2-carbonyl}-amino)-4-oxo-butyric acid], in that order: below 2500 nM, 500 to 1000 nM and below 10 nM.
Turning to `CC(C)[C@H](NC(=O)c1cnnc2ccccc12)C(=O)N1CCC[C@H]1C(=O)N[C@H](C=O)CC(=O)O` [Example 5s], the IC50 in assay [1] was above 7500 nM; in assay [3], 500 to 1000 nM. Moreover, the Ki in assay [2] and in assay [2] (setting [4]) was 10 to 1000 nM in each case.
With `CC(=O)N1CCN(C(=O)[C@H](C)NC(=O)c2nccc3ccccc23)[C@H](C(=O)N[C@H](C=O)CC(=O)O)C1` [Example 18d], the IC50 in assay [1] is below 2500 nM; in assay [3], 500 to 1000 nM. In addition, the Ki in assay [2] (setting [4]) fell in the range of 10 to 1000 nM.
For the compound `CCC(C)[C@H](NC(=O)c1nccc2ccccc12)C(=O)N1CCC[C@H]1C(=O)N[C@H](C=O)CC(=O)O` (stereo partly drawn) [Example 20c], the IC50 in assay [1] lay in the range of 2500 to 7500 nM; in assay [3] it was 1000 to 2000 nM. In addition, in assay [2] (setting [4]), the Ki was below 10 nM.
For `CC(C)(C)[C@H](NC(=O)c1nccc2ccccc12)C(=O)N1CCC[C@H]1C(=O)N[C@H](C=O)CC(=O)O` [Example 20a], in that order: below 2500 nM, 500 to 1000 nM and below 10 nM.
Regarding `CC(C)NC(=O)N1CCN(C(=O)[C@H](C)NC(=O)c2nccc3ccccc23)[C@H](C(=O)N[C@H](C=O)CC(=O)O)C1` [Example 18e], the IC50 in assay [1] was below 2500 nM; in assay [3] it was 1000 to 2000 nM. In assay [2] (setting [4]), this compound returned a Ki below 10 nM.
On the same counts, the results for `CC(=O)NC(C(=O)N1N=C(C(C)(C)C)SC1C(=O)NC(C=O)CC(=O)O)C(C)C` (stereo not drawn) [Example 42, 3-{[3-(2-acetylamino-3-methyl-butyryl)-5-tert-butyl-2,3-dihydro-[1,3,4]thiadiazole-2-carbonyl]-amino)-4-oxo-butyric acid] are 2500 to 7500 nM, above 2000 nM and 10 to 1000 nM.
On the same counts, the results for `C[C@H](NC(=O)c1nccc2ccccc12)C(=O)N1CCN(C(N)=O)C[C@H]1C(=O)N[C@H](C=O)CC(=O)O` [Example 18c] are below 2500 nM, 500 to 1000 nM and 10 to 1000 nM.
For `CS(=O)(=O)C[C@H](NC(=O)c1nccc2ccccc12)C(=O)N1CCC[C@H]1C(=O)N[C@H](C=O)CC(=O)O` [Example 20r, 3-[(1-{2-[(isoquinoline-1-carbonyl)-amino]-3-methanesulfonyl-propionyl}-pyrrolidine-2-carbonyl)-amino]-4-oxo-butyric acid], in that order: 2500 to 7500 nM, 500 to 1000 nM and 10 to 1000 nM.
With `O=C[C@H](CC(=O)O)NC(=O)[C@@H]1CCCN1C(=O)[C@H](Cc1cccnc1)NC(=O)c1cc(Cl)c(O)c(Cl)c1` [Example 20n], the IC50 was below 2500 nM in assay [1] and 500 to 1000 nM in assay [3]. For the same compound, the Ki in assay [2] (setting [4]) was below 10 nM.
Consider `CC(C)[C@H](NC(=O)Cc1ccccc1OCc1ccccc1)C(=O)N1CCC[C@H]1C(=O)N[C@H](C=O)CC(=O)O` [Example 5ab], for which the results for the IC50 in assay [1] and in assay [3] were 2500 to 7500 nM and 500 to 1000 nM, respectively. For the same compound, the Ki in assay [2] and in assay [2] (setting [4]) was 10 to 1000 nM each time.
On to `COC1CC(C(=O)NC(C=O)CC(=O)O)N(C(=O)C(C)NC(=O)c2ccc(N)c(Cl)c2)C1` (stereo not drawn) [Example 23i, 3-({1-[2-(4-amino-3-chloro-benzoylamino)-propionyl]-4-methoxy-pyrrolidine-2-carbonyl}-amino)-4-oxo-butyric acid], for which the IC50 in assay [1] was 2500 to 7500 nM; in assay [3], below 500 nM. In assay [2] (setting [4]), this compound displayed a Ki of 10 to 1000 nM.

For the origin of these results see patent US20030232986A1, “Inhibitors of caspases” (Vertex Pharmaceuticals Incorporated, priority 1998, published 2003).
